{"source": "patent US20070048738A1", "about": "“Methods and compositions for diagnosis, staging and prognosis of prostate cancer” (Mayo Foundation for Medical Education and Research, priority 2003, published 2007)", "key": {"ZNF185": {"tested_on": "ZNF185", "assay": "ZNF185 mRNA expression in prostate cancer cell lines after 5-Aza-CdR treatment (Taqman real-time PCR)", "format": "cell-based, human", "details": "LAPC4, LNCaP and PC3 prostate cancer cell lines; 6 μM 5-Aza-CdR for 6 days; versus untreated cells"}, "PRIMA1": {"tested_on": "PRIMA1", "assay": "PRIMA1 mRNA expression in prostate cancer cell lines after 5-Aza-CdR treatment (TaqMan real-time PCR)", "details": "6 μM 5-Aza-CdR for 6 days"}, "KIAA1210": {"tested_on": "KIAA1210", "assay": "KIAA1210 mRNA expression in prostate cancer cell lines after 5-Aza-CdR treatment (TaqMan real-time PCR)", "details": "LAPC4 and LNCaP cells; 6 μM 5-Aza-CdR for 6 days"}, "SVIL": {"tested_on": "SVIL", "assay": "SVIL mRNA expression in prostate cancer cell lines after 5-Aza-CdR treatment (TaqMan real-time PCR)", "details": "6 μM 5-Aza-CdR for 6 days"}, "FLJ14084": {"tested_on": "FLJ14084", "assay": "FLJ14084 mRNA expression in prostate cancer cell lines after 5-Aza-CdR treatment (TaqMan real-time PCR)", "details": "all three prostate cancer cells (LAPC4, LNCaP, PC3); 6 μM 5-Aza-CdR for 6 days"}, "TU3A": {"tested_on": "TU3A", "assay": "TU3A mRNA expression in prostate cancer cell lines after 5-Aza-CdR treatment (TaqMan real-time PCR)", "details": "6 μM 5-Aza-CdR for 6 days"}, "[1]": {"tested_on": "ZNF185 5′ CpG dinucleotides of genomic DNA", "assay": "Methylation specific PCR (MSP) of ZNF185 DNA in prostate cell lines with or without 5-Aza-CdR", "format": "cell-based, human", "details": "prostate cancer cell lines with 5-Aza-CdR treatment versus without", "experimental": "DNA isolation and Bisulfite modification. Genomic DNA was obtained from metastatic, primary, matched benign prostatic tissues and the above mentioned prostate cancer cell lines treated with 5-Aza-CdR, using Wizard® genomic DNA purification kit according to the manufacturer's protocol (Promega, Madison, Wis.). Genomic DNA (100 ng) was modified by sodium bisulfite treatment by converting unmethylated, but not methylated, cytosines to uracil as described previously (Herman et al., Proc. Natl. Acad. Sci. USA 93:9821-9826, 1996). DNA samples were then purified using the spin columns (Qiagen), and eluted in 50 μl of distilled water. Modification was completed by treatment with NaOH (0.3 M final concentration) for 5 min at room temperature, followed by ethanol precipitation. […]\nMethylation Specific PCR (MSP). DNA methylation patterns within the gene were determined by chemical modification of unmethylated cytosine to uracil and subsequent PCR as described previously (Esteller et al., Cancer Res. 61:3225-3229, 2001), using primers specific for either methylated or the modified unmethylated sequences.\nTwo sets of primers were designed corresponding to the genomic positions around 210 and 335. […] One (1) μl of the PCR product was directly loaded onto DNA 500 lab chip and analyzed on Agilent 2100 Bioanalyzer (Agilent Technologies, Palo Alto, Calif.)."}}, "data": [{"compound": "Nc1ncn([C@H]2C[C@H](O)[C@@H](CO)O2)c(=O)n1", "note": "[5-Aza-CdR, 5-aza-2′-deoxycytidine]", "values": [{"measurement": "increase in mRNA levels of ZNF185", "setting": "ZNF185", "value": "~2.0", "unit": "fold"}, {"measurement": "expression of PRIMA1 mRNA levels", "setting": "PRIMA1; LACaP cells (so in the source)", "value": "not in LACaP"}, {"measurement": "expression of PRIMA1 mRNA levels", "setting": "PRIMA1; LAPC4 and PC3 cells", "value": "significant increase"}, {"measurement": "KIAA1210 mRNA levels", "setting": "KIAA1210", "value": "increased"}, {"measurement": "expression of SVIL mRNA levels", "setting": "SVIL; LACaP cells (so in the source)", "value": "not in LACaP"}, {"measurement": "expression of SVIL mRNA levels", "setting": "SVIL; LAPC4 and PC3 cells", "value": "significant increase"}, {"measurement": "expression of FLJ14084 mRNA levels", "setting": "FLJ14084", "value": "significant increase"}, {"measurement": "TU3A expression levels", "setting": "TU3A; LAPC4 and PC3 cells", "value": "not in LAPC4 and PC3 cells"}, {"measurement": "TU3A expression levels", "setting": "TU3A; LNCaP cells", "value": "significantly increased"}, {"measurement": "methylated and unmethylated ZNF185 bands by MSP", "setting": "[1]", "value": "reduction of the methylated band and increase of the unmethylated band"}]}]}
